Data from patent publication US11267844B2, “Spirothietane nucleosides” (Janssen Pharmaceutica NV, priority 2017, dated 2022).

How the values were obtained:
HCV polymerase = HCV polymerase (Hepatitis C virus genotype 1b, UniProt Q9WMX2); experiment: Biochemical HCV polymerase inhibition
[1] = molecular target: T1, dengue virus NS5 polymerase domain (DENVpol, serotype 2, New Guinea C strain) (Dengue virus type 2, UniProt P14340); experiment: Dengue virus polymerase inhibition assay; assay type: biochemical, dengue virus serotype 2
T1 construct: The enzyme activity of dengue virus NS5 polymerase domain
Procedure: The enzyme activity of dengue virus NS5 polymerase domain (DENVpol, serotype 2, New Guinea C strain) is measured as an incorporation of tritiated NMP into acid-insoluble RNA products. DENVpol assay reactions contain recombinant enzyme, heteropolymeric RNA, about 0.5 μCi tritiated NTP, 0.33 μM of competing cold NTP, 40 mM HEPES (pH 7.5), 3 mM dithiothreitol, and 2 mM MgCl2. Standard reactions are incubated for 3 hours at 30° C., in the presence of increasing concentration of inhibitor. At the end of the reaction, RNA is precipitated with 10% TCA, and acid-insoluble RNA products are filtered on a size exclusion 96-well plate. After washing of the plate, scintillation liquid is added and radiolabeled RNA products are detected according to standard procedures with a Trilux Topcount scintillation counter. The compound concentration at which the enzyme-catalyzed rate is reduced by 50% (IC50) is calculated by fitting the data to a non-linear regression (sigmoidal).

HCV polymerase, sequence (Q9WMX2 2420-3010): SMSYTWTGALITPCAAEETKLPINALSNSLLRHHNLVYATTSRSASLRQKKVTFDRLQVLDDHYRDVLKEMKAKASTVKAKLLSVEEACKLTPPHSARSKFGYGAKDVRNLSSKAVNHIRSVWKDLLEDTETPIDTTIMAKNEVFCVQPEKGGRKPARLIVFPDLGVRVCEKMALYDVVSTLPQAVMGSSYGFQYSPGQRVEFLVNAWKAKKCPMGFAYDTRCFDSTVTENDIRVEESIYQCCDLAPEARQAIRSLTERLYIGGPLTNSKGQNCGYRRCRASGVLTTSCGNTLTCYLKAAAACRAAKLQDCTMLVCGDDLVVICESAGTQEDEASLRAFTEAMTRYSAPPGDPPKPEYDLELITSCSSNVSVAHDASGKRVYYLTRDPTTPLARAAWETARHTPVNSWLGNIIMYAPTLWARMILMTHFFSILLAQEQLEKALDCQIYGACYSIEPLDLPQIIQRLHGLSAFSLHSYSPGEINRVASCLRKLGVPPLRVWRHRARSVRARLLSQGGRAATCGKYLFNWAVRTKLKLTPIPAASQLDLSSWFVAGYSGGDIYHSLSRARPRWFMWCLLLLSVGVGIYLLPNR

Structure (SMILES) | IC50 (HCV polymerase) [nM] | IC50 [1] [nM]
O=c1ccn([C@@H]2O[C@H](COP(=O)(O)OP(=O)(O)OP(=O)(O)O)[C@@H](O)[C@]23CCS3)c(=O)[nH]1 [Compound 58] | 740 | 49700
Nc1ccn([C@@H]2O[C@H](COP(=O)(O)OP(=O)(O)OP(=O)(O)O)[C@@H](O)[C@]23CCS3)c(=O)n1 [Compound 59] | 320 | 2910
O=c1ccn([C@@H]2O[C@](F)(COP(=O)(O)OP(=O)(O)OP(=O)(O)O)[C@@H](O)[C@]23CCS3)c(=O)[nH]1 [Compound 60] | 690 | > 10000
Nc1ccn([C@@H]2O[C@](F)(COP(=O)(O)OP(=O)(O)OP(=O)(O)O)[C@@H](O)[C@]23CCS3)c(=O)n1 [Compound 61] | 160 | 2440
Nc1nc2c(ncn2[C@@H]2O[C@H](COP(=O)(O)OP(=O)(O)OP(=O)(O)O)[C@@H](O)[C@]23CCS3)c(=O)[nH]1 [Compound 63] | 180 | > 10000
